Test in all cases: In vitro competitive activity-based protein profiling (gel-based, FP-Rh or HT-01 probe)
Holding throughout (assay type): biochemical

The target of one assay is T1, ABHD6 (Mus musculus, UniProt Q8R2Y0).
T1 construct: Proteomes (mouse brain membrane fraction or cell lysates); from tissue; host or cells: mouse brain membrane fraction (or cell lysates, not specified)
T1 sequence (Q8R2Y0 1-336): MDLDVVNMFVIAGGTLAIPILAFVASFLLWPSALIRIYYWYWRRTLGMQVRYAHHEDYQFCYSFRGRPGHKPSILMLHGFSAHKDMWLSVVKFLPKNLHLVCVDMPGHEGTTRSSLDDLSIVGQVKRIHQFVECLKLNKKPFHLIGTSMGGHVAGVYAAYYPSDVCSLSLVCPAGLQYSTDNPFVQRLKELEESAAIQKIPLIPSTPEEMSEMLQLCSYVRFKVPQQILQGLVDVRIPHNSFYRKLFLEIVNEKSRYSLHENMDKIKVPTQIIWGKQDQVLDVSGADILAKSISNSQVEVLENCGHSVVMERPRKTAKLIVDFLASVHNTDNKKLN
Particulars: for inhibition at 1 µM: 1 μM inhibitor, read-out: % Inhibition at 1 μM, C = ABHD6; for inhibition at 10 µM: 10 μM inhibitor, read-out: % Inhibition at 10 μM, C = ABHD6; for IC50: mouse brain membrane fraction or cell lysates, 30 min preincubation at 37° C., read-out: Mouse (IC50 value, nM) ABHD6. An outline of the steps:
(§1)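 Gel-based read-out: fluorescent band intensity after SDS-PAGE reflected remaining hydrolase activity. Inhibitors were preincubated 30 min at 37° C with 1.0 mg/mL mouse brain membrane or lysate proteome before a further 30 min at 37° C with FP-Rh or HT-01 probe.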

For the next assay, the target named is T2, FAAH (Mus musculus, UniProt O08914).
T2 construct: Proteomes (mouse brain membrane fraction or cell lysates); from tissue; host or cells: mouse brain membrane fraction (or cell lysates, not specified)
T2 sequence (O08914 1-579): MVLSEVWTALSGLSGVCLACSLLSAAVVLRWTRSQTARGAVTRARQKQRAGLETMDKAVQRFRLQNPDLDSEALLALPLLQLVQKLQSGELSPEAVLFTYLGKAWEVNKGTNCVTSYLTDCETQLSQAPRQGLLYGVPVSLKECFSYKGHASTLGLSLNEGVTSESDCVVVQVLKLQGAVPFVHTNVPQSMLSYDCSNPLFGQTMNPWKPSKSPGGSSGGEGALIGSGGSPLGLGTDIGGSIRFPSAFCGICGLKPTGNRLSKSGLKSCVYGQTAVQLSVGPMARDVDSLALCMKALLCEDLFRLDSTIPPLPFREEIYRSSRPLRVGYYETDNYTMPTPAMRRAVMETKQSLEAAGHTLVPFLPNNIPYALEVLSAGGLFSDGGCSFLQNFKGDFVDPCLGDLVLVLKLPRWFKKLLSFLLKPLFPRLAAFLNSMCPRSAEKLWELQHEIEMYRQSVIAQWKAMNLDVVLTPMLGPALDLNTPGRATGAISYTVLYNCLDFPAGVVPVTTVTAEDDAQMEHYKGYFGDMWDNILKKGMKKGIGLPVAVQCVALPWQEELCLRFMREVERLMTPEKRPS
Particulars: for inhibition at 1 µM: 1 μM inhibitor, read-out: % Inhibition at 1 μM, B = FAAH; for inhibition at 10 µM: 10 μM inhibitor, read-out: % Inhibition at 10 μM, B = FAAH; for IC50: mouse brain membrane fraction or cell lysates, 30 min preincubation at 37° C., read-out: Mouse (IC50 value, nM) FAAH. An outline of the steps: as §1

Another assay has as its target T3, MAGL (Mus musculus, UniProt O35678).
T3 construct: Proteomes (mouse brain membrane fraction or cell lysates); from tissue; host or cells: mouse brain membrane fraction (or cell lysates, not specified)
T3 sequence (O35678 1-303): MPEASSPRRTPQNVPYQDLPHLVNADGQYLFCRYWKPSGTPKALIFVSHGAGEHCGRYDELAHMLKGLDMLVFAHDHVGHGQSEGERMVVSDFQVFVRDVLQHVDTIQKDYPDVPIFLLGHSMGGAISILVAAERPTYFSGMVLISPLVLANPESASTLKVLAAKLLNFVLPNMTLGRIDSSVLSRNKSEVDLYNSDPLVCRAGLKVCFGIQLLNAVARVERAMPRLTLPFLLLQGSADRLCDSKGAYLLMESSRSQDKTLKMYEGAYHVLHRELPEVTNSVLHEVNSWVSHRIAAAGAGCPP
Particulars: for inhibition at 1 µM: 1 μM inhibitor; for inhibition at 10 µM: 10 μM inhibitor; for IC50: mouse brain membrane fraction or cell lysates, 30 min preincubation at 37° C., read-out: Mouse (IC50 value, nM) MAGL. An outline of the steps:
as §1

In the next assay the target is T4, PLA2G7 (Mus musculus, UniProt Q60963).
T4 construct: Proteomes (mouse brain membrane fraction or cell lysates); from tissue; host or cells: mouse brain membrane fraction (or cell lysates, not specified)
T4 sequence (Q60963 22-440): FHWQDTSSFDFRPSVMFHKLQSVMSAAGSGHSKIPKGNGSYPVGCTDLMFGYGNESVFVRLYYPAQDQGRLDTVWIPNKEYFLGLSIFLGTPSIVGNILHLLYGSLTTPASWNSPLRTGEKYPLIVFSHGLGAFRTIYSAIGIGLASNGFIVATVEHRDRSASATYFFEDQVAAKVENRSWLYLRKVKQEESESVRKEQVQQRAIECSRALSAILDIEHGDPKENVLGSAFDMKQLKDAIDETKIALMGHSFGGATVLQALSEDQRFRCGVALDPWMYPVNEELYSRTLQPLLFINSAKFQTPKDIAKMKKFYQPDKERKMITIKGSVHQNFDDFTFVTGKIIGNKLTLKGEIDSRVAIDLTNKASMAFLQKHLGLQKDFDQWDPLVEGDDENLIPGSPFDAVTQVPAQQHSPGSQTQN
Particulars: for inhibition at 1 µM: 1 μM inhibitor, read-out: % Inhibition at 1 μM, D = PLA2G7; for inhibition at 10 µM: 10 μM inhibitor, read-out: % Inhibition at 10 μM, D = PLA2G7; for IC50: mouse brain membrane fraction or cell lysates, 30 min preincubation at 37° C. The gist of the method: as §1

Like-named read-outs stand apart in the source and are kept apart here.

For orientation: inhibition means the share of the control response that was lost under treatment. What is called IC50 is the midpoint of a concentration-inhibition curve.

With `CN(CCN(C)C(=O)n1cc(C(F)(F)F)cn1)C(=O)c1ccccc1` [Example 160, N-methyl-N-(2-(N-methylbenzamido)ethyl)-4-(trifluoromethyl)-1H-pyrazole-1-carboxamide], the inhibition at 1 µM was below 25% at ABHD6, above 75% at FAAH, below 25% at MAGL and above 75% on PLA2G7. For the same compound, the inhibition at 10 µM on ABHD6, at FAAH, on MAGL and on PLA2G7 was above 75% each time.

Consider `CCN(Cc1ccc(OC)cc1)C(=O)n1cc(C)cn1` [Example 260, N-Ethyl-N-(4-methoxybenzyl)-4-methyl-1H-pyrazole-1-carboxamide], for which the inhibition at 1 µM on ABHD6 (gel-based competitive ABPP), at FAAH (gel-based competitive ABPP), at MAGL (gel-based competitive ABPP) and at PLA2G7 (gel-based competitive ABPP) was below 25% in each case.

For `CCN(Cc1ccc(Cl)cc1)C(=O)n1cc(C#N)cn1` [Example 252, N-(4-Chlorobenzyl)-4-cyano-N-ethyl-1H-pyrazole-1-carboxamide], the inhibition at 1 µM at ABHD6 (gel-based competitive ABPP) is below 25%; on FAAH (gel-based competitive ABPP), above 75%; at MAGL (gel-based competitive ABPP), above 75%; on PLA2G7 (gel-based competitive ABPP) it was below 25%. Further, the inhibition at 10 µM is above 75% on ABHD6 (gel-based competitive ABPP), above 75% on FAAH (gel-based competitive ABPP), above 75% at MAGL (gel-based competitive ABPP) and 25 to 75% on PLA2G7 (gel-based competitive ABPP). Moreover, the figures for the IC50 at ABHD6, on FAAH and on MAGL were above 1000 nM, below 100 nM and 100 to 1000 nM, respectively.

In the case of `O=C(N1CCN(Cc2c(N3CCCC3)cccc2C(F)(F)F)CC1)n1cc(C(F)(F)F)cn1` [Example 110, (4-(2-(Pyrrolidin-1-yl)-6-(trifluoromethyl)benzyl)piperazin-1-yl)(4-(trifluoromethyl)-1H-pyrazol-1-yl)methanone], the inhibition at 1 µM was above 75% at ABHD6, below 25% at FAAH, above 75% on MAGL and above 75% on PLA2G7. In addition, the inhibition at 10 µM at ABHD6, on FAAH, on MAGL and on PLA2G7 was above 75% each time. Further, the half-maximal inhibitory concentration (IC50) at ABHD6 was below 100 nM; at FAAH, above 1000 nM; at MAGL, below 100 nM.

With `O=C(c1cnn(C(=O)N2CCN(Cc3ccncc3)CC2)c1)N1CCCC1` [Example 79, (4-(Pyridin-4-ylmethyl)piperazin-1-yl)(4-(pyrrolidine-1-carbonyl)-1H-pyrazol-1-yl)methanone], the inhibition at 1 µM on ABHD6 is 25 to 75%; at PLA2G7, below 25%. Also, the inhibition at 10 µM on ABHD6 was above 75%; at FAAH, 25 to 75%; on MAGL, below 25%; on PLA2G7, above 75%.

Take `O=C(N1CCN(Cc2ccccc2C(F)(F)F)CC1)n1cc(C(F)(F)F)cn1` [Example 279, (4-(Trifluoromethyl)-1H-pyrazol-1-yl)(4-(2-(trifluoromethyl)benzyl)piperazin-1-yl)methanone]: the inhibition at 1 µM on ABHD6 (gel-based competitive ABPP), on FAAH (gel-based competitive ABPP), on MAGL (gel-based competitive ABPP) and on PLA2G7 (gel-based competitive ABPP) was above 75% in each case. In addition, the IC50 at ABHD6 is below 100 nM; at FAAH, below 100 nM; on MAGL, below 100 nM; at PLA2G7 it was 100 to 1000 nM.

Take `Cc1cc(-c2ccccc2)ccc1CN1CCN(C(=O)n2cc(C#N)cn2)CC1` [Example 138, 1-(4-((3-methylbiphenyl-4-yl)methyl)piperazine-1-carbonyl)-1H-pyrazole-4-carbonitrile]: the inhibition at 1 µM at ABHD6, on FAAH, on MAGL and on PLA2G7 was above 75% throughout. In addition, the inhibition at 10 µM on ABHD6, on FAAH, on MAGL and at PLA2G7 was above 75% each time. The IC50 on ABHD6, at FAAH, on MAGL and at PLA2G7 was below 100 nM each time.

With `CS(=O)(=O)N1CCN(C(=O)n2cc(Cl)cn2)CC1` [Example 184, (4-Chloro-1H-pyrazol-1-yl)(4-(methylsulfonyl)piperazin-1-yl)methanone], the inhibition at 1 µM on ABHD6 is above 75%; on FAAH, below 25%; on MAGL, below 25%; on PLA2G7 it was above 75%. Also, the inhibition at 10 µM on ABHD6 is above 75%; on FAAH it was 25 to 75%; at MAGL, below 25%; on PLA2G7, above 75%.

As for `Cc1cnn(C(=O)N2CCCN(Cc3ccccc3)CC2)c1` [Example 168, (4-Benzyl-1,4-diazepan-1-yl)(4-methyl-1H-pyrazol-1-yl)methanone], the inhibition at 10 µM on ABHD6, on FAAH, on MAGL and at PLA2G7 was below 25% throughout.

`Cc1cc(-c2ccccc2)ccc1CN1CCN(C(=O)n2cc(-c3ccccc3)cn2)CC1` [Example 65, (4-((3-Methyl-[1,1′-biphenyl]-4-yl)methyl)piperazin-1-yl)(4-phenyl-1H-pyrazol-1-yl)methanone]: the inhibition at 1 µM at ABHD6 is above 75%; on FAAH, above 75%; at MAGL, below 25%; on PLA2G7, above 75%. Besides, the inhibition at 10 µM at ABHD6, at FAAH, at MAGL and at PLA2G7 was above 75% throughout.

Consider `Cc1cc(N2CCOCC2)ccc1CN1CCN(C(=O)n2cc(Cl)cn2)CC1` [Example 218, (4-Chloro-1H-pyrazol-1-yl)(4-(2-methyl-4-morpholinobenzyl)piperazin-1-yl)methanone], for which the inhibition at 1 µM at ABHD6, at FAAH, at MAGL and at PLA2G7 was above 75% throughout. For the same compound, the IC50 is 100 to 1000 nM at ABHD6, 100 to 1000 nM at FAAH, below 100 nM on MAGL and 100 to 1000 nM on PLA2G7.

The record behind these values is patent US10093630B2, “Pyrazole compounds and methods of making and using same” (ABIDE THERAPEUTICS, INC., priority 2014, dated 2018).
